Test results reported in patent US12565665B2, “Compositions and methods for controlled mRNA translation and stability” (TRUSTEES OF BOSTON UNIVERSITY, priority 2022, dated 2026).

How the values were obtained:
Bcl-xL = experiment: Drug response titration of Bad-BclxL iADAR system using A-1331852; assay type: cell-based, human; conditions: ADAR-Bad-BclxL variant with point mutation F121L, drug added at transfection
AlfaNb = conditions: cited from earlier work
GFP-GPI reporter = experiment: AUA to AUI editing creating upstream in-frame signal sequence and HA tag, live imaging and HA staining; assay type: cell-based, human
Excerpt: To test this, a reporter construct was designed that contained: an MS2-A editable AUA start codon upstream of the murine IgGκ signal sequence and HA epitope tag (SS-HA), an in frame AUG start codon, GFP, and the glycosylphosphatidylinositol (GPI) anchor sequence from Thymocyte differentiation antigen 1 (GPI in diagram) (see e.g., FIG. 27a). With this reporter, in the absence of editing, the majority of the translated product will be from the AUG codon directly upstream of GFP. This will lead to the translation product residing in the cytoplasm with a non-functional GPI anchor (as this post-translational modification (PTM) must occur in the endoplasmic reticulum (ER) lumen). Upon ADAR editing of the upstream AUA to AUI, translation will initiate upstream of the signal sequence, leading to co-translational translocation of HA-GFP-GPI into the ER lumen, the addition of the GPI anchor PTM, and presentation of HA-GFP on the plasma membrane (see e.g., FIG. 27b). With this construct, the editing can be monitored by either by microscopy (looking for ER & plasma membrane localization) or directly by immunostaining for the HA-tag.
HEK cells were co-transfected with the GFP-GPI reporter and either filler DNA, MCP-dADAR, or MCP-ADAR. A GFP-GPI with a functional start codon before the secretion signal was also transfected as a positive control (GFP-GPI Control). One day after transfection, HEK cells were imaged live, and then fixed and stained for HA tag with a primary anti-HA antibody and a secondary antibody that was conjugated to ALEXAFLUOR 647 (AF647).

UAG-MS2 editing reporter [1] = experiment: Stop codon editing reporter (mCherry / mNeonGreen) co-transfected with ADAR variants, fluorescence microscopy / ImageJ quantification; assay type: cell-based, human; conditions: for ADAR editing of the reporter construct depending on fusion position of BAD / Bcl-xL: 50 ng reporter and 50 ng ADAR construct, with or without A-1331852
editable AUG reporters = experiment: Destruction of an AUG start codon to IUG, EGFPd2/dTomato reporter, flow cytometry; assay type: cell-based, human; conditions: 48 hours post-transfection; n=3
Excerpt: To test this, an ADAR substrate was designed similar to the substrates tested above, but with an AUG codon in a dsRNA hairpin with a mismatch to promote the deamination of the correct adenine (see e.g., FIG. 28b). This scheme was similarly tested with both the high affinity MS2-C and lower affinity MS2-A variants by cloning these substrates into a pcDNA3 vector with a bidirectional CMV driving the expression of dTomato and EGFPd2 (see e.g., FIG. 28c).
HEK cells were co-transfected with the two different reporter constructs (MS2-C and MS2-A) and cither filler DNA, MCP-dADAR, or MCP-ADAR. 48 hours post-transfection, cells were lifted and analyzed by flow cytometry. Transfected cells were gated by dTomato, and the median EGFPd2-to-dTomato ratio for the population was calculated per replicate (n=3) by FLOWJO. 2-Way ANOVA was performed to determine significance.

UAG-MS2 editing reporter [2] = experiment: Stop codon editing reporter (mCherry / mNeonGreen) co-transfected with ADAR variants, flow cytometry (median mNeonGreen to mCherry); assay type: cell-based, human; conditions: for ADAR activity on mCherry-mNeonGreen reporter, no TEV protease: SpyTag / SpyCatcher ADAR variants
Excerpt: For the reporter system, the inventors used the fluorescent protein-epitope tag tandem fusions of mCherry-FLAG and HA-mNeonGreen as the upstream and downstream coding regions. Without DD editing activity, translation is terminated after mCherry-FLAG. Coexpression with MCP-ADAR2-DD was hypothesized to lead to binding of MCP-DD, stop codon UAG editing to UIG, and expression of mNeonGreen (FIG. 1B).
HEK 293 FT cells were co-transfected with plasmids expressing the reporter containing 2 UAG stop codons in the hairpin and a pcDNA3 construct encoding a fusion protein composed of MCP, ADAR2-DD (E488Q), and TagBFP.
Two days later, fluorescence microscopy images were taken of the cell populations. […] The inventors repeated the experiment and analyzed the samples by flow-cytometry.
The inventors transiently co-transfected HEK 293 FT cells with the mCherry-mNeonGreen reporter, MCP-ADAR2-DD variants containing different configurations of ALFA-tag insertions and NbALFA fusions, and uncaging constructs containing miRFP670 fused to ALFA. Without wishing to be bound by theory, it was hypothesized that the intramolecular interaction would inhibit the ADAR2-DD, but that the ALFA tag on the miRFP670 would displace the lower strength ALFA variants (PE and 78), and perhaps at high enough concentrations displace the intramolecular ALFA, and lead to increased editing.
The inventors then made an ADAR-DD variant with an inserted TEV protease cut site (amino acids ENLYFQG, SEQ ID NO: 286) between the C-terminus of ADAR2-DD and the N-terminus of SpyCatcher (FIG. 5C). The inventors co-transfected HEK 293 FT cells with the reporter construct, the ADAR-DD TEVcs variant, and the TEV protease and 48 hours later analyzed the transfected cells via flow cytometry (FIG. 5D-5E).
Mutated versions were then cloned and co-transfected with an editing reporter in the absence and presence of A-1331852, and absolute background and fold change upon drug addition were determined by flow cytometry (see e.g., FIG. 22d and table 11).

AUA reporter = experiment: Creation of a START codon (AUA to AUI), EGFPd2/dTomato reporter, flow cytometry; assay type: cell-based, human; conditions: 48 hours post-transfection, n=3
Excerpt: To test this, an ADAR substrate was designed composed of a dsRNA hairpin containing both an AUA-codon with a mismatch at the second adenine to promote specific deamination to AUI (as opposed to IUA or IUI) and an MS2 operator motif (see e.g., FIG. 26b). The design of one large dsRNA hairpin was chosen to promote correct folding of RNA secondary structures. Previous studies have shown that MS2 operators in the 5′UTR of eukaryotic mRNA can lead to decreased translational efficiency when co-expressed with its corresponding coat protein (MS2 coat protein, or MCP), so high and low affinity variants of the MS2 operator (called here MS2-C and MS2-A respectively for the base at the stem loop) were tested with the idea that the lower affinity MS2-A loop would be less likely to inhibit translation by coat protein alone. As positive controls, the same loops were also designed with the correct AUG start codon.
These designs were cloned into pcDNA3 vectors containing a bidirectional CMV promoter driving constitutive dTomato and EGFPd2 (see e.g., FIG. 26c). The S′UTR and start codon of EGFPd2 were replaced with the editable start codon designs so the translational efficiency could be measured by looking at the EGFPd2 fluorescence relative to dTomato when co-expressed with MCP-ADAR. In this construct, if the correct start codon is skipped, the next AUG codon leads to a short, out of frame translation product.
HEK293FT cells were co-transfected with each of the reporter constructs (MS2-C w/ AUG start, MS2-C w/ AUA start, MS2-A w/ AUG start, and MS2-A w/ AUA start) and either filler DNA, inactivated ADAR2-DD (E396A) fused to MCP (MCP-dADAR), or active ADAR2-DD (E488Q) fused to MCP (MCP-ADAR). 48 hours post-transfection, cells were lifted and analyzed by flow cytometry. Transfected cells were gated by dTomato, and the median EGFPd2-to-dTomato ratio for the population was calculated per replicate (n=3) by FLOWJO. 2-Way ANOVA was performed to determine significance.

AlfaNb, sequence (as listed by the source): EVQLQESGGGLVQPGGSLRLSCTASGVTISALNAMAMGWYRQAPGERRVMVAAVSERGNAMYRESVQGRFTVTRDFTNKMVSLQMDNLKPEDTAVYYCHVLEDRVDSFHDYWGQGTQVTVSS

Cc1c(-c2ccc(N3CCc4cccc(C(=O)Nc5nc6ccccc6s5)c4C3)nc2C(=O)O)cnn1CC12CC3CC(CC(C3)C1)C2 [A-1331852]
concentration at which activation maxed out (Bcl-xL; flow cytometry 48 hours): ~30 nM | concentration at which the iADAR activated (as low as) (Bcl-xL; flow cytometry 48 hours after transfection, n=3): 1 nM

ALFA epitope tag, SRLEEELRRRLTE, SEQ ID NO: 85
reported interaction strength with AlfaNb (AlfaNb): picomolar

MCP-linker-ADAR2(E396A & E488Q)-TagBFP [MCP-dADAR]
HA tag staining of cells with AUA construct (GFP-GPI reporter; fixed, permeabilized, anti-HA and AF647 secondary): not much staining | cellular distribution of GFP from AUA-SS-GFP-GPI, live imaging (GFP-GPI reporter; one day after transfection): more cytoplasmic distribution | mNeonGreen expression, fluorescence microscopy (UAG-MS2 editing reporter [1]; HEK 293 FT cells co-transfected with reporter containing 2 UAG stop codons in the hairpin, two days after transfection): minimal mNeonGreen fluorescence | translational efficiency, MS2-A based AUG construct (editable AUG reporters): significant decrease in translational efficiency | Fold Change (UAG-MS2 editing reporter [2]; 1 μM vs 0 μM A-1331852, flow cytometry, n=1): 0.9649 | Flow Cytometry Values, 0 μM (median of the ratio of mNeonGreen to mCherry) (UAG-MS2 editing reporter [2]; HEK cells co-transfected with ADAR reporter and ADAR variant, 0 μM A-1331852, two days after transfection, gated by BFP, n=1): 0.0049 | Flow Cytometry Values, 1 μM (median of the ratio of mNeonGreen to mCherry) (UAG-MS2 editing reporter [2]; HEK cells co-transfected with ADAR reporter and ADAR variant, 1 μM A-1331852, two days after transfection, gated by BFP, n=1): 0.0047 | effect on translational efficiency from a native AUG start codon, MS2-A substrate (AUA reporter): more modest negative effect on translational efficiency | relative fluorescence (EGFPd2-to-dTomato) of MS2-C reporters compared with filler DNA (NT) (AUA reporter; 2-Way ANOVA): significantly decreased the relative fluorescence

MCP-linker-ADAR2-DDN-SpyTag- ADAR2(E488Q)-DDC-TEVcs-SpyCatcher-TagBFP [ADAR-DD TEVcs variant]
induced ADAR activity with TEV protease (UAG-MS2 editing reporter [2]; co-transfected TEV protease, flow cytometry 48 hours later): close to that of the non-engineered ADAR2-DD | dependence of ADAR activity on TEV protease (UAG-MS2 editing reporter [2]; co-transfected with or without TEV protease, flow cytometry 48 hours later): only active with the addition of TEV protease

MCP-linker-ADAR2-DDN-SpyTag- ADAR2(E488Q)-DDC-TagBFP -P2A-T2A-SpyCatcher [T2A-SpyCatcher variant]
ADAR activity on mCherry-mNeonGreen reporter, no TEV protease (UAG-MS2 editing reporter [2]; flow cytometry): activity was seen

MCP-linker-ADAR2-DDN-SpyTag- ADAR2(E488Q)-DDC-TagBFP [SpyTag variant]
ADAR activity on mCherry-mNeonGreen reporter, no TEV protease (UAG-MS2 editing reporter [2]; flow cytometry): activity was seen

MCP-linker-BAD-ADAR2-DD(E488Q)-Bcl-xL-TagBFP [BAD-DD-BclxL]
ADAR editing of the reporter construct depending on fusion position of BAD / Bcl-xL (UAG-MS2 editing reporter [1]; HEK cells, two days, n=1): drug-dependent allostery | fold change with A-1331852, N-terminal BAD fusion system (UAG-MS2 editing reporter [1]; HEK cells, absence or presence of A-1331852, two days, n=1): 5.9 × | background in the absence of drug compared with the loop insertion conformation (UAG-MS2 editing reporter [1]; N-terminal BAD, C-terminal Bcl-xL, n=1): significantly higher

MCP-linker-BAD-ADAR2-DD(E488Q)-TagBFP [BAD-DD]
ADAR editing of the reporter construct depending on fusion position of BAD / Bcl-xL (UAG-MS2 editing reporter [1]; HEK cells, two days, n=1): did not affect ADAR editing of the reporter construct

MCP-linker-BclxL-linker-ADAR2-DDN-Bad(L)-ADAR2(E488Q)-DDC-TagBFP [BclxL-nDD-BAD-cDD]
ADAR editing of the reporter construct depending on fusion position of BAD / Bcl-xL (UAG-MS2 editing reporter [1]; HEK cells, two days, n=1): did not inhibit the enzymatic activity

lower affinity ALFA epitope variant, GRLEEELRRRLSP, SEQ ID NO: 86 [ALFA-PE]
reported interaction strength with AlfaNb (AlfaNb): nanomolar
